Numbering of substitutions follows the chain as printed. Like-named read-outs stand apart in the source and are kept apart here.
Assays:
RET(KD: 658-1114 G810R) = target: T1, RET(KD: 658-1114 G810R) (Homo sapiens, UniProt P07949, G810R); assay: HiBiT-Degradation, RET G810R degradation assay (Nano-Glo HiBiT Lytic), 293T.165 cells; type: cell-based; conditions: for Emax / DC50: 6.0 hours; for Emax: % remaining protein, read-out: 293T.165 RET(KD: 658-1114 G810R) 6.0 hours (Emax); for DC50: read-out: 293T.165 RET(KD: 658-1114 G810R) 6.0 hours (DC50)
T1 construct: 658-1114; expressed in transfected cells; host or cells: 293T.165 (293T cells, generated in-house)
T1 sequence (P07949 658-1114 G810R): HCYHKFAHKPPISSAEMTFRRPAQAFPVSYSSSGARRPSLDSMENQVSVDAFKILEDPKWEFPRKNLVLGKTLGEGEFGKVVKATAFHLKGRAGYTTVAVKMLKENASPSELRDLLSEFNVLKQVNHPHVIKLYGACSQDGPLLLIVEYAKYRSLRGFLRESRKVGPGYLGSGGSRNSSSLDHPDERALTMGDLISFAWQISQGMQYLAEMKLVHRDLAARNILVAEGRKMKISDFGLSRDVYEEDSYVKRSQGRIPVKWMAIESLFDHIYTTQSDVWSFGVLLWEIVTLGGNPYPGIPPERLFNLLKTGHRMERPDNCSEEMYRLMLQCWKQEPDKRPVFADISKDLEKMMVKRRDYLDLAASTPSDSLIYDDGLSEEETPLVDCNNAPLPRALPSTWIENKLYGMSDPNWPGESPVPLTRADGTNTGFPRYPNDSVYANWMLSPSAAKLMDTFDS
In short: (§1)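 Engineered 293T cells carry a HiBiT tag on the RET kinase domain, either wild type (line 293T.144) or G810R (line 293T.165). Compounds act for 6 h across a 10 μM-top, half-log 11-point range. Lytic HiBiT luminescence gives remaining protein, fitted for DC50 and Emax.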

RET (658-1114) = target: T2, RET (658-1114) (Homo sapiens, UniProt P07949); assay: HiBiT-Degradation, RET wild-type degradation assay (Nano-Glo HiBiT Lytic), 293T.144 cells; type: cell-based; conditions: for DC50 / Emax: 6.0 hours; for DC50: read-out: 293T.144 RET (658-1114) 6.0 hours (DC50); for Emax: read-out: 293T.144 RET (658-1114) 6.0 hours (Emax)
T2 construct: 658-1114; expressed in transfected cells; host or cells: 293T.144 (293T cells, generated in-house)
T2 sequence (P07949 658-1114): T1 sequence (P07949 658-1114 G810R) with R153G
In short: as §1

[1] = half-maximal degradation concentration

Row | Compound | Emax (RET(KD: 658-1114 G810R)) | DC50 (RET(KD: 658-1114 G810R); [1]) | 293T.165 RET(KD: 658-1114 G810R) 6.0 hours (Emax) (RET(KD: 658-1114 G810R); HiBiT-Degradation) | 293T.165 RET(KD: 658-1114 G810R) 6.0 hours (IP) [nM] (RET(KD: 658-1114 G810R); HiBiT-Degradation) | DC50 (RET(KD: 658-1114 G810R); HiBiT-Degradation) | 293T.144 RET (658-1114) 6.0 hours (IP) [nM] (RET (658-1114); HiBiT-Degradation) | DC50 (RET (658-1114); HiBiT-Degradation) | Emax (RET (658-1114); HiBiT-Degradation) | 293T.165 RET(KD: 658-1114 G810R) 6.0 hours (IP) [nM] (RET(KD: 658-1114 G810R)) | 293T.144 RET (658-1114) 6.0 hours (IP) [nM] (RET (658-1114)) | Emax (RET (658-1114); % remaining protein) | DC50 (RET (658-1114); [1])
1 | CCC1(C(=O)NC(C)C)CCN(c2ncc(-c3cc(-c4cnn(C5CCN(C(=O)CN6CCC(c7ccc(NC8CCC(=O)NC8=O)cc7F)CC6)CC5)c4)cn4ncc(C#N)c34)cn2)CC1 (stereo not shown) [Compound 59, 1-[5-[3-cyano-6-[1-[1-[2-[4-[4-[(2,6-dioxo-3-piperidyl)amino]-2-fluoro-phenyl]-1-piperidyl]acetyl]-4-piperidyl]pyrazol-4-yl]pyrazolo[1,5-a]pyridin-4-yl]pyrimidin-2-yl]-4-ethyl-N-isopropyl-piperidine-4-carboxamide] | < 50% | < 100 nM | +++ (<50% = +++) | ++++ (< 50 nM = ++++) | < 100 nM | ++++ (< 50 nM = ++++) | < 50 nM | < 30% |  |  |  | 
2 | CCC1(C(=O)NC(C)C)CCN(c2ccc(-c3nc(-c4ccc(C5CCN(C(=O)CN6CC(c7ccc(NC8CCC(=O)NC8=O)cc7F)C6)CC5)cc4)cn4ncc(C#N)c34)cn2)CC1 (stereo not shown) [Compound 174, 1-[5-[3-cyano-6-[4-[1-[2-[3-[4-[(2,6-dioxo-3-piperidyl)amino]-2-fluoro-phenyl]azetidin-1-yl]acetyl]-4-piperidyl]phenyl]pyrazolo[1,5-a]pyrazin-4-yl]-2-pyridyl]-4-ethyl-N-isopropyl-piperidine-4-carboxamide] | < 50% | < 100 nM |  |  |  |  |  |  | ++++ (<50 nM = ++++) | ++++ (<50 nM = ++++) | < 30% | < 50 nM
3 | COc1ccc(CN2[C@@H]3COC[C@H]2CN(c2ccc(-c4nc(-c5cnn([C@H]6CC[C@@H](N7CCN(c8cc9c(cc8F)c(N8CCC(=O)NC8=O)nn9C)CC7)CC6)c5)cn5ncc(C#N)c45)cn2)C3)cn1 (single isomer, unassigned) [Compound 152] | < 30% | < 50 nM |  |  |  |  |  |  | ++++ (<50 nM = ++++) | ++++ (<50 nM = ++++) | < 30% | < 50 nM

Results, then the compound that gave them:

Row | Emax (RET(KD: 658-1114 G810R)) | DC50 (RET(KD: 658-1114 G810R); [1]) | 293T.165 RET(KD: 658-1114 G810R) 6.0 hours (Emax) (RET(KD: 658-1114 G810R); HiBiT-Degradation) | 293T.165 RET(KD: 658-1114 G810R) 6.0 hours (IP) [nM] (RET(KD: 658-1114 G810R); HiBiT-Degradation) | DC50 (RET(KD: 658-1114 G810R); HiBiT-Degradation) | 293T.144 RET (658-1114) 6.0 hours (IP) [nM] (RET (658-1114); HiBiT-Degradation) | DC50 (RET (658-1114); HiBiT-Degradation) | Emax (RET (658-1114); HiBiT-Degradation) | 293T.165 RET(KD: 658-1114 G810R) 6.0 hours (IP) [nM] (RET(KD: 658-1114 G810R)) | 293T.144 RET (658-1114) 6.0 hours (IP) [nM] (RET (658-1114)) | Emax (RET (658-1114); % remaining protein) | DC50 (RET (658-1114); [1]) | Compound
4 | < 30% | < 50 nM |  |  |  |  |  |  | ++++ (<50 nM = ++++) | ++++ (<50 nM = ++++) | < 30% | < 50 nM | CCC1(C(=O)NC(C)C)CCN(c2ccc(-c3nc(-c4cnn(C5CCN(C(=O)CC6(O)CCN(c7ccc(NC8CCC(=O)NC8=O)cc7F)CC6)CC5)c4)cn4ncc(C#N)c34)cc2)CC1 (stereo not shown) [Compound 121, 1-(4-(3-Cyano-6-(1-(1-(2-(1-(4-((2,6-dioxopiperidin-3-yl)amino)-2-fluorophenyl)-4-hydroxypiperidin-4-yl)acetyl)piperidin-4-yl)-1H-pyrazol-4-yl)pyrazolo[1,5-a]pyrazin-4-yl)phenyl)-4-ethyl-N-isopropylpiperidine-4-carboxamide]
5 | < 50% | < 100 nM | +++ (<50% = +++) | ++++ (< 50 nM = ++++) | < 100 nM | ++++ (< 50 nM = ++++) | < 50 nM | < 30% |  |  |  |  | CC(C)NC(=O)C1(C(C)C)CCN(c2ccc(-c3cc(-c4cnn(C5CCN(C(=O)CN6CCC(c7ccc(NC8CCC(=O)NC8=O)cc7F)CC6)CC5)c4)cn4ncc(C#N)c34)cn2)CC1 (stereo not shown) [Compound 56, 1-[5-[3-cyano-6-[1-[1-[2-[4-[4-[(2,6-dioxo-3-piperidyl)amino]-2-fluoro-phenyl]-1-piperidyl]acetyl]-4-piperidyl]pyrazol-4-yl]pyrazolo[1,5-a]pyridin-4-yl]-2-pyridyl]-N,4-diisopropyl-piperidine-4-carboxamide]

Source: patent publication US12661410B2, “Compounds for targeted degradation of RET” (C4 Therapeutics, Inc., priority 2020, dated 2026)
